# Assay results taken from patent US20230329282A1, “Application of 1-Deoxynojirimycin in Feed for Improving Nutritional Value and Sensory Effect of Rabbit Meat Products” (priority 2023, published 2023).
# Marks after values point to notes of the source that are not given here.
# Tests used:
# Assay type in all cases: in vivo
# [1] = test system: New Zealand white rabbits; assay: Antioxidant indexes of rabbit meat (T-AOC, SOD, GSH-Px, MDA kits); settings: 28 d, muscle homogenate
# Source text: (§1) The single-factor completely randomized test design is adopted. 36 45-day-old healthy New Zealand white rabbits (male) with the average weight of (1.05±0.04) kg are selected and randomly divided into 3 groups, and each group has 12 replicates with 1 rabbit per replicate. A control group is fed with a basal diet, an L-DNJ group is fed with the basal diet+0.14 g/kg DNJ, and an H-DNJ group is fed with the basal diet+0.28 g/kg DNJ. The diet is uniformly mixed to be prepared into cylindrical particles with the diameter of 6 mm and the length of 1 cm. The preliminary trial period is 14 d, and the trial period is 28 d.
# About 5 g of muscular tissue is rinsed in 0-4° C. precooled normal saline to remove blood, dried with filter paper, and then weighed. The muscle tissue and 0-4° C. precooled homogenate buffer are thoroughly mixed and homogenized in an ice water bath at a […] to prepare muscle tissue homogenate with the mass concentration of 10%. The homogenate buffer contains 0.01 mol/L sucrose, 0.14 mol/L NaCl, 0.01 mol/L Tris-HCl and 0.0001 mol/L Na2EDTA, with the pH value of 7.4. The total protein content and the malondialdehyde (MDA) content of the tissue suspension is detected with a kit by a colorimetric method. Before the activities of total antioxidant capacity (T-AOC) enzyme, superoxide dismutase (SOD) and glutathione peroxidase (GSH-Px) are measured, the homogenate suspension is centrifuged at 3000 r/min for 15 min, the superneant is taken, and the activities of the enzymes are measured with relevant kits. All the kits are from Nanjing Jiancheng Bioengineering Institute, and the operation method is shown in the instructions of kits.
# [2] = test system: New Zealand white rabbits; assay: Apparent digestibility of nutrients, total collection method; settings: feces collected 3 d from day 14
# Source text: as §1
# On the 14th day of the test, 8 experimental rabbits with similar weight are randomly selected from each group and transferred to metabolism cages for digestion and metabolism tests. The digestion and metabolism tests are conducted by the total collection method. All fecal samples of the experimental rabbits are collected for 3 consecutive days, and the contents of nutrients in the diet and fecal samples are measured according to the method in the book written by Zhang Liying. The calculation formula is: apparent digestibility of a nutrient (%)=(content of the nutrient in diet−content of the nutrient in feces)/content of the nutrient in diet×100.
# [3] = test system: New Zealand white rabbits; assay: Meat quality of rabbit longissimus dorsi (pH, meat color, drip loss, shear force) after DNJ-supplemented diet; settings: 28 d; for Meat color Brightness L* / Meat color Redness a* / Meat color Yellowness b* / pH45min / pH24 h / pH24 h decreased: longissimus dorsi; for Drip loss: meat hung at 4° C. 24 h
# Source text: as §1
# Before the test, rabbit houses and cages are cleaned and disinfected, rabbits are immunized according to routine procedures, and the rabbit houses are naturally ventilated and illuminated. Each experimental rabbit is raised in a single cage and fed with a diet and water twice a day at fixed time (8:00 am and 17:00 pm), and is free to eat and drink.
# The rabbits are deprived of food (but not water) on the night of the end of the experiment, and after weighing in the next morning, 8 rabbits with similar weight are selected from each group and slaughtered. The longissimus dorsi muscles of the rabbits are collected, the pH values of the front, middle and back parts of the longissimus dorsi muscle are measured with a pH meter (Bante221, Shanghai Bante Instrument Co., Ltd.) having the function of automatic temperature compensation and then measured again after standing at room temperature for 24 h, and the pH decreased values of the muscle within 24 h are calculated. The pH value is the average value of the three readings. The meat color (L*, α*, b*) is measured with a TC-PIIG automatic color difference meter (Beijing Aoyike Photoelectric Instrument Co., Ltd.) on the muscle surface. The detection light source is D65 according to CIE laboratory standards, and the measurement area is 8 mm in diameter. The average value is obtained by making three measurements at each detection point.
# About 20 g of meat sample is weighed (demoted as M1), hung with a thin thread, and covered with a plastic bag with the mouth sealed, enough space is left inside to accommodate oozy water drops, and the meat sample is hung in a 4° C. refrigerator for 24 h. After being taken out, the meat sample is weighed (denoted as M2) after the surface moisture is absorbed with absorbent paper. 3 parallel samples are measured for each rabbit, and the results are averaged. Drip loss=(M1−M2)/M1×100%.
# Another meat sample is trimmed into a 1 cm×1 cm×2.5 cm meat strip, the shear force is measured in the direction perpendicular to the muscle fibers by a TMS-PRO texture analyzer (FTC Corporation, USA) for three times, and the results are averaged.
# [4] = test system: New Zealand white rabbits; assay: Growth performance (ADFI, ADG, FCR); settings: 28 d trial
# Source text: as §1
# In the morning of the first day of the trial period and the second day after the trial, the experimental rabbits are weighed once on an empty stomach, and the average daily gain (ADG) of each rabbit is calculated. Leftovers are collected and weighed before feeding, and the average daily feed intake (ADFI) of each rabbit is calculated. The ratio of the average daily feed intake to the average daily gain is the feed conversion rate (FCR). The calculation formula is as follows: • ADG=(final weight−initial weight)/test days; • ADFI=total feed intake/test days; • FCR=ADFFADG.
# [5] = H-DNJ: basal diet+0.28 g/kg DNJ
# [6] = L-DNJ: basal diet+0.14 g/kg DNJ
structure (smiles),measurement,setting,value
"OC[C@H]1NC[C@H](O)[C@@H](O)[C@@H]1O [DNJ, 1-deoxynojirimycin]",GSH-Px of rabbit meat,[1]; [5],7.88ª U/mg prot
same,MDA of rabbit meat,[1]; [5],0.45 nmol/mg prot
same,SOD of rabbit meat,[1]; [5],25.91 U/mg prot
same,T-AOC of rabbit meat,[1]; [5],0.82ª U/mg prot
same,GSH-Px of rabbit meat,[1]; [6],6.36^b U/mg prot
same,MDA of rabbit meat,[1]; [6],0.41 nmol/mg prot
same,SOD of rabbit meat,[1]; [6],25.01 U/mg prot
same,T-AOC of rabbit meat,[1]; [6],0.78^ab U/mg prot
same,Apparent digestibility of Acid detergent fiber (ADF),[2]; [5],14.88%
same,Apparent digestibility of Crude ash,[2]; [5],42.23%
same,Apparent digestibility of Crude fiber (CF),[2]; [5],14.56%
same,Apparent digestibility of Crude protein (CP),[2]; [5],76.25ª %
same,Apparent digestibility of Dry matter (DM),[2]; [5],60.79^b %
same,Apparent digestibility of Ether extract (EE),[2]; [5],78.35^b %
same,Apparent digestibility of Neutral detergent fiber,[2]; [5],20.68%
same,Apparent digestibility of Acid detergent fiber (ADF),[2]; [6],12.34%
same,Apparent digestibility of Crude ash,[2]; [6],43.44%
same,Apparent digestibility of Crude fiber (CF),[2]; [6],13.54%
same,Apparent digestibility of Crude protein (CP),[2]; [6],75.17^ab %
same,Apparent digestibility of Dry matter (DM),[2]; [6],61.35^ab %
same,Apparent digestibility of Ether extract (EE),[2]; [6],79.84^ab %
same,Apparent digestibility of Neutral detergent fiber,[2]; [6],21.02%
same,Shear force,[3]; [5],33.51 N/cm^2
same,Meat color Brightness L*,[3]; [5],55.34^b
same,Meat color Redness a*,[3]; [5],1.71ª
same,Meat color Yellowness b*,[3]; [5],8.35
same,pH45min,[3]; [5],6.77
same,pH24 h,[3]; [5],5.89
same,pH24 h decreased,[3]; [5],0.87
same,Drip loss,[3]; [5],3.17%
same,Shear force,[3]; [6],32.86 N/cm^2
same,Meat color Brightness L*,[3]; [6],55.82^ab
same,Meat color Redness a*,[3]; [6],1.56ª
same,Meat color Yellowness b*,[3]; [6],8.32
same,pH45min,[3]; [6],6.62
same,pH24 h,[3]; [6],5.87
same,pH24 h decreased,[3]; [6],0.76
same,Drip loss,[3]; [6],3.56%
same,Average daily feed intake (ADFI),[4]; [5],140.46
same,Average daily gain (ADG),[4]; [5],32.66 g/day
same,Feed conversion rate (FCR),[4]; [5],0.24 g/g
same,Average daily feed intake (ADFI),[4]; [6],145.33
same,Average daily gain (ADG),[4]; [6],36.18 g/day
same,Feed conversion rate (FCR),[4]; [6],0.25 g/g
